Experimental data: patent publication US7691382B2, “Antiviral polypeptides comprising tandem repeats of APOE 141-149 and variants thereof” (priority 2003, dated 2010)
Values joined by “and” are separate entries in the source; they are usually repeats but may differ in a detail not shown here. Equal values may be shown once. Read-outs that look alike come from different tables or passages of the source. Peptide text beside a SMILES is read from it.

Experiments:
[1] = system: HSV1; assay type: cell-based, Human herpes simplex virus type 1
Method in brief: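 Plaque reduction in Vero monolayers: ~100 pfu HSV1 pre-mixed 10 min at 37 °C with acetylated/amidated peptides in 0.5% FCS medium, inoculated 60–80 min, then carboxymethylcellulose overlay for 22 or 40 h. Plaques counted after fixing and carbol fuchsin staining; IC50 from % of control versus peptide concentration.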

[2] = system: HSV2 clinical isolates; assay type: cell-based, Human herpes simplex virus type 2
Description: Plaque assays were performed. The methodology was as described in previous Examples for HSV1 plaque assays (including usage of Vero cells) except HSV2 clinical isolates (provided by Prof. Anthony Hart of Liverpool University) were employed instead.

[3] = system: HSV1; experiment: HSV1 plaque formation in Vero cells (Example 1); assay type: cell-based, Human herpes simplex virus type 1; conditions: for HSV1 plaque formation in Vero cells, plaque count, wells 1-4: 1 hour; for HSV1 plaque formation in Vero cells, Mean ± sd: untreated 107 ± 14.2
Description: FIG. 1 and table 1 show typical results for the test for anti-HSV1 activity. The assay involved treating confluent Vero cells in 24-well plates with medium containing virus and varying amounts of peptide for one hour, followed by removal of this inoculum, and addition of viscous ‘overlay’ medium, containing 0.2% high viscosity carboxymethylcellulose. The overlay medium only allows infection of those cells immediately adjacent to an infected cell. After 2 days incubation and then fixation and staining, small patches of infected cells (or ‘plaques’) are visible, which are counted. Each of these corresponds to the infection of a single cell during the one hour inoculation. ApoE141-149dp produced a 40% reduction in plaque number at a concentration of around 20 μM. Note the peptide was only present in the experimental system for 1 hour.

[4] = system: HSV2; experiment: HSV2 plaque formation in HEp-2 cells (Example 1); assay type: cell-based, Human herpes simplex virus type 2; conditions: for HSV2 plaque formation in HEp-2 cells, plaque count, wells 1-4: 1 hour; for HSV2 plaque formation in HEp-2 cells, Mean ± sd: untreated 152 ± 10.7
Description: FIG. 2 and table 2 show typical results for the test for anti-HSV2 activity. The assay was carried out as for the anti-HSV1 assay, except Hep-2 cells were used rather than Vero cells. ApoE141-149dp produced a 50% reduction in plaque number at a concentration of around 20 μM. Again note that the peptide was only present in the experimental system for 1 hour.

[5] = system: HIV-1
Description: The assay was carried out by incubating HIV infected U937 cells in the presence of various levels of peptide for 7 days, followed by assay for levels of the HIV protein p24 in the cells using an Enzyme Linked Immunoabsorbant Assay (ELISA) technique.

[6] = peptide 10 μM in virus inoculum
[7] = peptide 20 μM in virus inoculum
[8] = peptide 30 μM in virus inoculum
[9] = peptide 40 μM in virus inoculum
[10] = peptide 30 μM, U937 cells, 7 days
[11] = peptide 50 μM, U937 cells, 7 days

Compound: CC(=O)N[C@@H](Cc1c[nH]c2ccccc12)C(=O)N[C@@H](CCCNC(=N)N)C(=O)N[C@@H](CCCCN)C(=O)N[C@@H](Cc1c[nH]c2ccccc12)C(=O)N[C@@H](CCCNC(=N)N)C(=O)N[C@@H](CCCCN)C(=O)N[C@@H](CCCNC(=N)N)C(=O)N[C@@H](Cc1c[nH]c2ccccc12)C(=O)N[C@@H](Cc1c[nH]c2ccccc12)C(=O)N[C@@H](CC(C)C)C(=O)N[C@@H](CCCNC(=N)N)C(=O)N[C@@H](CCCCN)C(=O)N[C@@H](CC(C)C)C(=O)N[C@@H](CCCNC(=N)N)C(=O)N[C@@H](CCCCN)C(=O)N[C@@H](CCCNC(=N)N)C(=O)N[C@@H](CC(C)C)C(=O)N[C@@H](CC(C)C)C(N)=O [GIN 34] (Ac-WRKWRKRWWLRKLRKRLL-NH2)
- IC50 [1]: 6 µM
- efficacy for reducing HSV1 infectivity (in words) ([1]; Examples 2 and 3): also had efficacy
- IC50 [2]: < 3.3 µM

Compound: CC(=O)N[C@@H](Cc1c[nH]c2ccccc12)C(=O)N[C@@H](CCCNC(=N)N)C(=O)N[C@@H](CCCCN)C(=O)N[C@@H](Cc1c[nH]c2ccccc12)C(=O)N[C@@H](CCCNC(=N)N)C(=O)N[C@@H](CCCCN)C(=O)N[C@@H](CCCNC(=N)N)C(=O)N[C@@H](Cc1c[nH]c2ccccc12)C(=O)N[C@@H](Cc1c[nH]c2ccccc12)C(=O)N[C@@H](Cc1c[nH]c2ccccc12)C(=O)N[C@@H](CCCNC(=N)N)C(=O)N[C@@H](CCCCN)C(=O)N[C@@H](Cc1c[nH]c2ccccc12)C(=O)N[C@@H](CCCNC(=N)N)C(=O)N[C@@H](CCCCN)C(=O)N[C@@H](CCCNC(=N)N)C(=O)N[C@@H](Cc1c[nH]c2ccccc12)C(=O)N[C@@H](Cc1c[nH]c2ccccc12)C(N)=O [GIN 7] (Ac-WRKWRKRWWWRKWRKRWW-NH2)
- IC50 [2]: < 3.3 µM

Compound: ApoE263-286: apoE263-286 peptide tested alongside apoE141-149dp in Example 1 (SWFEPLVEDMQRQWAGLVEKVQAA; UniProt P02649 281-304, looked up, fragment) [reference compound]
- HSV1 plaque formation in Vero cells, plaque count, wells 1-4 ([3]; peptide 5 μM in virus inoculum): 113 and 119 and 122 and 126
- HSV1 plaque formation in Vero cells, Mean ± sd ([3]; peptide 5 μM): 120 ± 5.5
- HSV1 plaque formation in Vero cells, plaque count, wells 1-4 [3, 6]: 116 and 124 and 102
- HSV1 plaque formation in Vero cells, Mean ± sd ([3]; peptide 10 μM): 114 ± 11.1
- HSV1 plaque formation in Vero cells, plaque count, wells 1-4 [3, 7]: 148 and 112 and 133 and 114
- HSV1 plaque formation in Vero cells, Mean ± sd ([3]; peptide 20 μM): 127 ± 17.0
- HSV1 plaque formation in Vero cells, plaque count, wells 1-4 [3, 8]: 134 and 109 and 114 and 125
- HSV1 plaque formation in Vero cells, Mean ± sd ([3]; peptide 30 μM): 121 ± 11.2
- HSV1 plaque formation in Vero cells, plaque count, wells 1-4 [3, 9]: 120 and 113 and 125 and 144
- HSV1 plaque formation in Vero cells, Mean ± sd ([3]; peptide 40 μM): 126 ± 11.2
- HSV2 plaque formation in HEp-2 cells, plaque count, wells 1-4 ([4]; peptide 5 μM in virus inoculum): 135 and 160 and 161 and 152
- HSV2 plaque formation in HEp-2 cells, Mean ± sd ([4]; peptide 5 μM): 152 ± 12.0
- HSV2 plaque formation in HEp-2 cells, plaque count, wells 1-4 [4, 6]: 157 and 121 and 151 and 134
- HSV2 plaque formation in HEp-2 cells, Mean ± sd ([4]; peptide 10 μM): 141 ± 16.1
- HSV2 plaque formation in HEp-2 cells, plaque count, wells 1-4 [4, 7]: 118 and 150 and 182 and 134
- HSV2 plaque formation in HEp-2 cells, Mean ± sd ([4]; peptide 20 μM): 146 ± 27.3
- HSV2 plaque formation in HEp-2 cells, plaque count, wells 1-4 [4, 8]: 118 and 117 and 103 and 159
- HSV2 plaque formation in HEp-2 cells, Mean ± sd ([4]; peptide 30 μM): 124 ± 24.2
- HSV2 plaque formation in HEp-2 cells, plaque count, wells 1-4 [4, 9]: 132 and 144 and 125 and 124
- HSV2 plaque formation in HEp-2 cells, Mean ± sd ([4]; peptide 40 μM): 131 ± 24.2
- activity against HIV, significance by ANOVA (in words) ([5]; FIG. 3, acutely infected U937 cells): did not reach significance
- reduction in infectivity (HIV) ([5]; at 20 μM, U937 cells, 7 days): 20%
- % Decrease in HIV p24 Production, Mean ± sd ([5]; peptide 10 μM, U937 cells, 7 days): 23.21 ± 12.79%
- % Decrease in HIV p24 Production, Mean ± sd ([5]; peptide 20 μM, U937 cells, 7 days): 22.77 ± 13.07%
- % Decrease in HIV p24 Production, Exp. 1-3 [5, 10]: 37.94% and 27.83% and 41.78%
- % Decrease in HIV p24 Production, Mean ± sd [5, 10]: 35.85 ± 7.21%
- % Decrease in HIV p24 Production, Mean ± sd ([5]; peptide 40 μM, U937 cells, 7 days): 38.87 ± 12.70%
- % Decrease in HIV p24 Production, Exp. 1-3 [5, 11]: 33.36% and 41.45% and 45.66%
- % Decrease in HIV p24 Production, Mean ± sd [5, 11]: 40.16 ± 6.25%
